Data taken from ChEMBL document CHEMBL5390283, “Discovery of PVD-06 as a Subtype-Selective and Efficient PTPN2 Degrader” (J Med Chem, 2023).
pEC50: −log10 of the molar value. Each block holds one molecule with its values, some of them ahead of it. Activity calls are given as the source filed them. No cut-off for these calls is given here.

Legend:
[1] = target: T1, von Hippel-Lindau disease tumor suppressor/Tyrosine-protein phosphatase non-receptor type 2 (Homo sapiens, UniProt P17706+P40337); experiment: PROTAC activity at VHL/PTPN2 in human Jurkat cells assessed as induction of PTPN2 degradation at 100 nM by Western blot analysis relative to control; format: cell-based
Target sequence in this assay (P17706 whole entry, looked up): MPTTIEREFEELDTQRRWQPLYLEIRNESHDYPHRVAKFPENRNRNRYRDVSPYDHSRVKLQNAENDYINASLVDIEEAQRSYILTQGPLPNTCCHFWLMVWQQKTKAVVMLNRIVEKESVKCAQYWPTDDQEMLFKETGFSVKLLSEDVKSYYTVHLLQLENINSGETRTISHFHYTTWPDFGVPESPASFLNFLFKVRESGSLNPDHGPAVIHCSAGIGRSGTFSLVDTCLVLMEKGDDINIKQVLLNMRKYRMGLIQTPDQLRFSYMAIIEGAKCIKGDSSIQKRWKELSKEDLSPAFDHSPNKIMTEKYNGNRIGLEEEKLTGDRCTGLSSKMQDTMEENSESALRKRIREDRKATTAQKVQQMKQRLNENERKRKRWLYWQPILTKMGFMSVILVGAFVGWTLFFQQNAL
Target sequence in this assay (P40337 whole entry, looked up): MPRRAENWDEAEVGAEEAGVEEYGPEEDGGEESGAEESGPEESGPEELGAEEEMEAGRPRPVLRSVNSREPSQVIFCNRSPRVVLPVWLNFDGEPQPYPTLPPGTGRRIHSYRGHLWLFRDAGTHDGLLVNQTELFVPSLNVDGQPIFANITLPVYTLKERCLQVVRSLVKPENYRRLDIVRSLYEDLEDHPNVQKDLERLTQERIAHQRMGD

[2] = target: T1, von Hippel-Lindau disease tumor suppressor/Tyrosine-protein phosphatase non-receptor type 2; experiment: PROTAC activity at VHL/PTPN2 in human Jurkat cells assessed as induction of PTPN2 degradation at 10 uM by Western blot analysis relative to control; format: cell-based
Target sequence in this assay (P17706 whole entry, looked up): as the sequence (P17706 whole entry, looked up) above
Target sequence in this assay (P40337 whole entry, looked up): as the sequence (P40337 whole entry, looked up) above

[3] = target: T1, von Hippel-Lindau disease tumor suppressor/Tyrosine-protein phosphatase non-receptor type 2; experiment: PROTAC activity at VHL/PTPN2 in human Jurkat cells assessed as induction of PTPN2 degradation at 1 uM by Western blot analysis relative to control; format: cell-based
Target sequence in this assay (P17706 whole entry, looked up): as the sequence (P17706 whole entry, looked up) above
Target sequence in this assay (P40337 whole entry, looked up): as the sequence (P40337 whole entry, looked up) above

[4] = target: Protein cereblon/Tyrosine-protein phosphatase non-receptor type 2 (Homo sapiens) (UniProt P17706+Q96SW2); experiment: PROTAC activity at CRBN/PTPN2 in human Jurkat cells assessed as induction of PTPN2 degradation at 0.01 to 10 uM by Western blot analysis; format: cell-based; details: dose 0.01-10 µM
Protein cereblon/Tyrosine-protein phosphatase non-receptor type 2 (Homo sapiens), sequence (P17706 whole entry, looked up): as the sequence (P17706 whole entry, looked up) above
Protein cereblon/Tyrosine-protein phosphatase non-receptor type 2 (Homo sapiens), sequence (Q96SW2 whole entry, looked up): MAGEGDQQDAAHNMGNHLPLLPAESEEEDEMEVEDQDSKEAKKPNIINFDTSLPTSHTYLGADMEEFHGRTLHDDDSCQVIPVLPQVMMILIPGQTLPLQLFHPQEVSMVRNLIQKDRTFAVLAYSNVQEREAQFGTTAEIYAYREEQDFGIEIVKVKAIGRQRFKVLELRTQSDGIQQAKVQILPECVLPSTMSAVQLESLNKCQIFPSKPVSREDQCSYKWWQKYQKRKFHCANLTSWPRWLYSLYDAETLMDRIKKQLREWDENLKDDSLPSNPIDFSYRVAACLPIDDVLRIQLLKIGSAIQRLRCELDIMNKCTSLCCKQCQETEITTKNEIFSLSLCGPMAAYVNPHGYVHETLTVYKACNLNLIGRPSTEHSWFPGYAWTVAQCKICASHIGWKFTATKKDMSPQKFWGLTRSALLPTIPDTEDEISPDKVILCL

[5] = target: von Hippel-Lindau disease tumor suppressor/Tyrosine-protein phosphatase non-receptor type 1 (Homo sapiens, UniProt P18031+P40337); experiment: PROTAC activity at VHL/PTP1B in human Jurkat cells assessed as induction of PTP1B degradation by Western blot analysis; format: cell-based
von Hippel-Lindau disease tumor suppressor/Tyrosine-protein phosphatase non-receptor type 1, sequence (P18031 whole entry): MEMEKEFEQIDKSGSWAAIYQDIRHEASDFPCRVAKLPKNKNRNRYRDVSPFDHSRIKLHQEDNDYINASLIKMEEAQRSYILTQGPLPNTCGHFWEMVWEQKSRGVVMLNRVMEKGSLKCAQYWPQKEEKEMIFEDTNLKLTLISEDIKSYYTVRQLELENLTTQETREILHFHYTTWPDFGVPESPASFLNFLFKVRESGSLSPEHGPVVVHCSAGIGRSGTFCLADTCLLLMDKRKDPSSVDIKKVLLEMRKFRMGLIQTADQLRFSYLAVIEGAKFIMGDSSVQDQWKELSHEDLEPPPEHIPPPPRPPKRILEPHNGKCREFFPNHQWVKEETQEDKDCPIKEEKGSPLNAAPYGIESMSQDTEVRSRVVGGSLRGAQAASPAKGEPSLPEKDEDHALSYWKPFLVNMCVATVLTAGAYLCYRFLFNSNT
von Hippel-Lindau disease tumor suppressor/Tyrosine-protein phosphatase non-receptor type 1, sequence (P40337 whole entry): as the sequence (P40337 whole entry, looked up) above

[6] = target: T1, von Hippel-Lindau disease tumor suppressor/Tyrosine-protein phosphatase non-receptor type 2; experiment: PROTAC activity at VHL/PTPN2 in human Jurkat cells assessed as induction of PTPN2 degradation by Western blot analysis; format: cell-based
Target sequence in this assay (P17706 whole entry): as the sequence (P17706 whole entry, looked up) above
Target sequence in this assay (P40337 whole entry): as the sequence (P40337 whole entry, looked up) above

B16-F10 [7] = experiment: Effect on SHP-1 level in mouse B16-F10 cells at 0.013 to 10 uM by Western blot analysis; format: functional, cell-based; details: dose 0.013-10 µM
[8] = target: T2, von Hippel-Lindau disease tumor suppressor/Receptor-type tyrosine-protein phosphatase N2 (Mus musculus) (UniProt P40338+P80560); experiment: PROTAC activity at VHL/PTPN2 in mouse B16-F10 cells assessed as induction of PTPN2 degradation at 0.013 to 10 uM by Western blot analysis; format: cell-based; details: dose 0.013-10 µM
T2 sequence (P40338 whole entry, looked up): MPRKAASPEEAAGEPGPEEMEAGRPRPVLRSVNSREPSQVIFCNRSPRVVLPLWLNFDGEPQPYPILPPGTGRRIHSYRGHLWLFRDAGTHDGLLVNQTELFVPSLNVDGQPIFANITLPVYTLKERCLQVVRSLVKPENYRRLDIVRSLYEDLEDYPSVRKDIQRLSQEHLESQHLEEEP
T2 sequence (P80560 whole entry, looked up): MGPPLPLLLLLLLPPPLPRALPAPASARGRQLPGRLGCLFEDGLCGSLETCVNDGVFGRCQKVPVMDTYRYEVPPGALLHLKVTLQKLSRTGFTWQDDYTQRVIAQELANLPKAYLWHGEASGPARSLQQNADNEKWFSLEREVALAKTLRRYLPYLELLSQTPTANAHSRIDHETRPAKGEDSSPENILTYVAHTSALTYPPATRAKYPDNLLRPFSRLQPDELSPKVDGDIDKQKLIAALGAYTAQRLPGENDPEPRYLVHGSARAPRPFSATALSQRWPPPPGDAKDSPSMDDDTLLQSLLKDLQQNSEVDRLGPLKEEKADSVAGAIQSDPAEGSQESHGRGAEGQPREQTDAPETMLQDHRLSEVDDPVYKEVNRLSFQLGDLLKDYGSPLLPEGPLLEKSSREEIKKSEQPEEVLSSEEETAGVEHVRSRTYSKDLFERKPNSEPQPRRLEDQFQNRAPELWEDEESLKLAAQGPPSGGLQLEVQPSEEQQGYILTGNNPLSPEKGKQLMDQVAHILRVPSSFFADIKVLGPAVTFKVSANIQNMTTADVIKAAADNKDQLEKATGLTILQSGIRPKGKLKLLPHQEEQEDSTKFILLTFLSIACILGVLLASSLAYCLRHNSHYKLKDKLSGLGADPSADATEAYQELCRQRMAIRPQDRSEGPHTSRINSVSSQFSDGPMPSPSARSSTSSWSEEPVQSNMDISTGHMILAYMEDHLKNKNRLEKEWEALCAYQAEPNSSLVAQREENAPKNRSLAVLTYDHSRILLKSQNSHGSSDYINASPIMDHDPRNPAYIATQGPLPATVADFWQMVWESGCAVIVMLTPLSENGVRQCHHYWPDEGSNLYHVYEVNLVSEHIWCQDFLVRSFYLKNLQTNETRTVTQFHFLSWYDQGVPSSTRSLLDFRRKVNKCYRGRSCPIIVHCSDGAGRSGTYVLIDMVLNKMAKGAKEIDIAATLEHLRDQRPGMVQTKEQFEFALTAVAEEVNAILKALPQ

Jurkat [9] = experiment: Effect on PTPN18 level in human Jurkat cells at 1 uM incubated for 24 hrs by label free proteomic analysis; format: functional, cell-based
Splenocyte [10] = experiment: Induction of cell proliferation in anti-CD3/CD28-stimulated mouse splenocytes incubated for 3 days by CFSE dye based flow cytometry; format: functional; details: dose 1.25-5 µM, time 3.0 day
[11] = target: T1, von Hippel-Lindau disease tumor suppressor/Tyrosine-protein phosphatase non-receptor type 2; experiment: PROTAC activity at VHL/PTPN2 in human Jurkat cells assessed as induction of PTPN2 degradation at 1 uM incubated for 24 hrs by label free proteomic analysis; format: cell-based
Target sequence in this assay (P17706 whole entry, looked up): as the sequence (P17706 whole entry, looked up) above
Target sequence in this assay (P40337 whole entry, looked up): as the sequence (P40337 whole entry, looked up) above

Jurkat [12] = experiment: Effect on PTPN9 level in human Jurkat cells at 1 uM incubated for 24 hrs by label free proteomic analysis; format: functional, cell-based
HepG2 = experiment: Effect on PTP1B level in human HepG2 cells at 0.013 to 10 uM by Western blot analysis; format: functional, cell-based; details: dose 0.013-10 µM
B16-F10 [13] = experiment: Effect on PTP1B level in mouse B16-F10 cells at 0.013 to 10 uM by Western blot analysis; format: functional, cell-based; details: dose 0.013-10 µM
B16-F10 [14] = experiment: Inhibition of cell growth in IFN-gamma-treated mouse B16-F10 cells assessed as reduction in cell confluency measured upto 96 hrs; format: functional, cell-based; details: dose 1.25-5 µM
Splenocyte [15] = experiment: Effect on SHP-2 level in mouse splenocytes cells at 0.013 to 10 uM by Western blot analysis; format: functional, cell-based; details: dose 0.013-10 µM
Jurkat [16] = experiment: Effect on PTPN7 level in human Jurkat cells at 1 uM incubated for 24 hrs by label free proteomic analysis; format: functional, cell-based
[17] = target: T1, von Hippel-Lindau disease tumor suppressor/Tyrosine-protein phosphatase non-receptor type 2; experiment: PROTAC activity at VHL/PTPN2 in human Jurkat cells assessed as induction of PTPN2 degradation at 1 uM by Western blot analysis; format: cell-based; details: time 1-48 hrs, TDE = time-dependent effect
Target sequence in this assay (P17706 whole entry, looked up): as the sequence (P17706 whole entry, looked up) above
Target sequence in this assay (P40337 whole entry, looked up): as the sequence (P40337 whole entry, looked up) above

[18] = target: T1, von Hippel-Lindau disease tumor suppressor/Tyrosine-protein phosphatase non-receptor type 2; experiment: PROTAC activity at VHL/PTPN2 in human Jurkat cells assessed as increase in STAT1 phosphorylation incubated for 23 hrs followed by IFN-gamma stimulation for 1 hr by Western blot analysis; format: cell-based; details: dose <= 10.0 µM, time 24.0 hrs
Target sequence in this assay (P17706 whole entry, looked up): as the sequence (P17706 whole entry, looked up) above
Target sequence in this assay (P40337 whole entry, looked up): as the sequence (P40337 whole entry, looked up) above

[19] = target: T1, von Hippel-Lindau disease tumor suppressor/Tyrosine-protein phosphatase non-receptor type 2; experiment: PROTAC activity at VHL/PTPN2 in IFN-gamma-stimulated human Jurkat cells assessed as induction of PTPN2 degradation at 0.1 to 10 uM incubated for 24 hrs by Western blot analysis; format: cell-based; details: dose 0.1-10 µM
Jurkat [20] = experiment: Effect on PTPN23 level in human Jurkat cells at 1 uM incubated for 24 hrs by label free proteomic analysis; format: functional, cell-based
Jurkat [21] = experiment: Effect on PTP1B level in human Jurkat cells at 1 uM incubated for 1 to 48 hrs by Western blot analysis; format: functional, cell-based; details: time 1-48 hrs
Jurkat [22] = experiment: Effect on PTP1B level in human Jurkat cells at 0.1 to 10 uM incubated for 24 hrs by Western blot analysis; format: functional, cell-based; details: dose 0.1-10 µM
Jurkat [23] = experiment: Effect on PTPN11 level in human Jurkat cells at 1 uM incubated for 24 hrs by label free proteomic analysis; format: functional, cell-based
[24] = target: T1, von Hippel-Lindau disease tumor suppressor/Tyrosine-protein phosphatase non-receptor type 2; experiment: PROTAC activity at VHL/PTPN2 in IFN-gamma-stimulated human Jurkat cells assessed as increase in STAT1 phosphorylation at 0.1 to 10 uM incubated for 24 hrs by Western blot analysis; format: cell-based; details: dose 0.1-10 µM
Jurkat [25] = experiment: Effect on STAT1 level in human Jurkat cells at 0.1 to 10 uM incubated for 24 hrs by Western blot analysis; format: functional, cell-based; details: dose 0.1-10 µM
Jurkat [26] = experiment: Effect on PTPN1 level in human Jurkat cells at 1 uM incubated for 24 hrs by label free proteomic analysis; format: functional, cell-based
[27] = target: T2, von Hippel-Lindau disease tumor suppressor/Receptor-type tyrosine-protein phosphatase N2 (Mus musculus); experiment: PROTAC activity at VHL/PTPN2 in mouse splenocytes assessed as induction of PTPN2 degradation at 0.013 to 10 uM by Western blot analysis; format: cell-based; details: Splenocyte, dose 0.013-10 µM
B16-F10 [28] = experiment: Effect on SHP-2 level in mouse B16-F10 cells at 0.013 to 10 uM by Western blot analysis; format: functional, cell-based; details: dose 0.013-10 µM
Splenocyte [29] = experiment: Effect on PTP1B level in mouse splenocytes at 0.013 to 10 uM by Western blot analysis; format: functional, cell-based; details: dose 0.013-10 µM
Jurkat [30] = experiment: Effect on PTPN6 level in human Jurkat cells at 1 uM incubated for 24 hrs by label free proteomic analysis; format: functional, cell-based
[31] = target: T1, von Hippel-Lindau disease tumor suppressor/Tyrosine-protein phosphatase non-receptor type 2; experiment: PROTAC activity at VHL/PTPN2 in human HepG2 cells assessed as induction of PTPN2 degradation at 0.013 to 10 uM by Western blot analysis; format: cell-based; details: dose 0.013-10 µM
Splenocyte [32] = experiment: Effect on SHP-1 level in mouse splenocytes at 0.013 to 10 uM by Western blot analysis; format: functional, cell-based; details: dose 0.013-10 µM

Activity [1]: -3%
Activity [2]: -53%
Activity [3]: -8%
Structure (SMILES): Cc1ncsc1-c1ccc([C@H](C)NC(=O)[C@@H]2C[C@@H](O)CN2C(=O)[C@@H](NC(=O)Cn2cc(-c3ccc4cc(O)c(N5CC(=O)NS5(=O)=O)c(F)c4c3)cn2)C(C)(C)C)cc1

Activity [4]: Active
Structure (SMILES): O=C(Cn1cc(-c2ccc3cc(O)c(N4CC(=O)NS4(=O)=O)c(F)c3c2)cn1)NCCCNc1cccc2c1C(=O)N(C1CCC(=O)NC1=O)C2=O (stereo unspecified)

pEC50 [5]: 6.85
Activity [1]: 40%
Activity [2]: 99%
Activity [3]: 84%
pEC50 [6]: 7.03
Structure (SMILES): Cc1ncsc1-c1ccc([C@H](C)NC(=O)[C@@H]2C[C@@H](O)CN2C(=O)[C@@H](NC(=O)CCCCCCNC(=O)Cn2cc(-c3ccc4cc(O)c(N5CC(=O)NS5(=O)=O)c(F)c4c3)cn2)C(C)(C)C)cc1

pEC50 [5]: 5.70
Activity [1]: 4%
Activity [2]: 98%
Activity [3]: 71%
pEC50 [6]: 6.24
Structure (SMILES): Cc1ncsc1-c1ccc([C@H](C)NC(=O)[C@@H]2C[C@@H](O)CN2C(=O)[C@@H](NC(=O)CCCCCCCCCCNC(=O)Cn2cc(-c3ccc4cc(O)c(N5CC(=O)NS5(=O)=O)c(F)c4c3)cn2)C(C)(C)C)cc1

Activity [1]: 15%
Activity [2]: 85%
Activity [3]: 35%
Structure (SMILES): Cc1ncsc1-c1ccc([C@H](C)NC(=O)[C@@H]2C[C@@H](O)CN2C(=O)[C@@H](NC(=O)CCNC2CCN(C(=O)Cn3cc(-c4ccc5cc(O)c(N6CC(=O)NS6(=O)=O)c(F)c5c4)cn3)CC2)C(C)(C)C)cc1

pEC50 [5]: 6.12
Activity [1]: 37%
Activity [2]: 99%
Activity [3]: 84%
pEC50 [6]: 7.11
Structure (SMILES): Cc1ncsc1-c1ccc([C@H](C)NC(=O)[C@@H]2C[C@@H](O)CN2C(=O)[C@@H](NC(=O)CCCCCCCNC(=O)Cn2cc(-c3ccc4cc(O)c(N5CC(=O)NS5(=O)=O)c(F)c4c3)cn2)C(C)(C)C)cc1

Activity [4]: Active
Structure (SMILES): Cn1c(=O)n(C2CCC(=O)NC2=O)c2ccc(C3CCN(C(=O)Cn4cc(-c5ccc6cc(O)c(N7CC(=O)NS7(=O)=O)c(F)c6c5)cn4)CC3)cc21 (stereo unspecified)

Activity [1]: -1%
Activity [2]: 96%
Activity [3]: 57%
Structure (SMILES): Cc1ncsc1-c1ccc([C@H](C)NC(=O)[C@@H]2C[C@@H](O)CN2C(=O)[C@@H](NC(=O)CCNC(=O)Cn2cc(-c3ccc4cc(O)c(N5CC(=O)NS5(=O)=O)c(F)c4c3)cn2)C(C)(C)C)cc1

Activity [4]: Active
Structure (SMILES): O=C(Cn1cc(-c2ccc3cc(O)c(N4CC(=O)NS4(=O)=O)c(F)c3c2)cn1)NCCCCNc1cccc2c1C(=O)N(C1CCC(=O)NC1=O)C2=O (stereo unspecified)

pEC50 [5]: 4.88
Activity [8]: Active
Activity [1]: 43%
Activity [11]: Active
Activity [2]: 99%
Activity [3]: 81%
Activity [17]: Tde
Activity [18]: Dose-Dependent Effect
Activity ([19]; DEGRADER): Active
Activity [19]: inactive
pEC50 [6]: 6.66
Activity ([24]; DEGRADER): Active
Activity [24]: inactive
Activity [27]: Active
Activity [31]: Active
Structure (SMILES): Cc1ncsc1-c1ccc([C@H](C)NC(=O)[C@@H]2C[C@@H](O)CN2C(=O)[C@@H](NC(=O)CCCCCNC(=O)Cn2cc(-c3ccc4cc(O)c(N5CC(=O)NS5(=O)=O)c(F)c4c3)cn2)C(C)(C)C)cc1
Activity (B16-F10 [7]): inactive
Activity (Jurkat [9]): inactive
Activity (Splenocyte [10]): Dose-Dependent Effect
Activity (Jurkat [12]): inactive
Activity (HepG2): inactive
Activity (B16-F10 [13]): inactive
inhibition (B16-F10 [14]): Dose-Dependent Effect
Activity (Splenocyte [15]): inactive
Activity (Jurkat [16]): inactive
Activity (Jurkat [20]): inactive
Activity (Jurkat [21]): inactive
Activity (Jurkat [22]): inactive
Activity (Jurkat [23]): inactive
Activity (Jurkat [25]): inactive
Activity (Jurkat [26]): inactive
Activity (B16-F10 [28]): inactive
Activity (Splenocyte [29]): inactive
Activity (Jurkat [30]): inactive
Activity (Splenocyte [32]): inactive
